Assay [1] deals with TRPV1. To be noted: cited from earlier work.
For assay [2], the target named is T1, YYAA concatemer rat TRPV1 (two Y511A mutant subunits) (Rattus norvegicus, UniProt O35433, Y511A).
T1 construct: expressed in transfected cells; host or cells: TSA201 (HEK293T) cells, transient transfection; excised inside-out patches
It is filed as cell-based.

For the next assay, the target named is T2, wildtype mouse TRPV1 (Mus musculus, UniProt Q704Y3).
T2 construct: expressed in transfected cells; host or cells: TSA201 (HEK293T) cells, transient transfection
The experiment in a line: cell-based. It is filed as cell-based.

For assay [3], the target named is T3, Y512A mutant mouse TRPV1 (Mus musculus, UniProt Q704Y3, Y512A).
T3 construct: expressed in transfected cells; host or cells: TSA201 (HEK293T) cells, transient transfection
The experiment in a line: cell-based. Format: cell-based.

In assay [4] the test system is TRPV1. It is filed as cell-based.
For assay [5], the target named is T4, YYYA concatemer rat TRPV1 (single Y511A mutant binding site) (Rattus norvegicus, UniProt O35433, Y511A).
T4 construct: expressed in transfected cells; host or cells: TSA201 (HEK293T) cells, transient transfection; excised inside-out patches
It is filed as cell-based.

Assay [6] deals with T5, Y511A mutant subunit of rat TRPV1 (YYYA and YYAA concatemers) (Rattus norvegicus, UniProt O35433, Y511A).
T5 construct: expressed in transfected cells; host or cells: TSA201 (HEK293T) cells, transient transfection
It is filed as cell-based.

Assay [7] has as its target TRPV1 (Rattus norvegicus, UniProt O35433). To be noted: cited from earlier work.
Assay [8] concerns the target TRPV1 (Rattus norvegicus, UniProt O35433, Y511A). To be noted: cited from earlier work.
Assay [9] deals with T4, YYYA concatemer rat TRPV1 (single Y511A mutant binding site). The note with it: cited from earlier work.
For assay [10], the target named is T3, Y512A mutant mouse TRPV1. The note with it: cited from earlier work.
Assay [11] addresses T6, wildtype (Y) subunit of rat TRPV1 concatemers (Rattus norvegicus, UniProt O35433).
T6 construct: expressed in transfected cells; host or cells: TSA201 (HEK293T) cells, transient transfection
It is filed as cell-based.

Assay [12] deals with T7, Y511A (A) mutant subunit of rat TRPV1 concatemers (Rattus norvegicus, UniProt O35433, Y511A).
T7 construct: expressed in transfected cells; host or cells: TSA201 (HEK293T) cells, transient transfection
Format: cell-based.

Assay [13] relates to Y511A mutant subunit of rat TRPV1 (YYYA and YYAA concatemers). It is filed as cell-based.

pEC50, pKd: −log10 of the molar value. Values joined by “and” are separate entries in the source; they are usually repeats but may differ in a detail not shown here. Equal entries are not always repeated. Where two headings read alike, the source gives them in different places.

T5 sequence (O35433 whole entry Y511A): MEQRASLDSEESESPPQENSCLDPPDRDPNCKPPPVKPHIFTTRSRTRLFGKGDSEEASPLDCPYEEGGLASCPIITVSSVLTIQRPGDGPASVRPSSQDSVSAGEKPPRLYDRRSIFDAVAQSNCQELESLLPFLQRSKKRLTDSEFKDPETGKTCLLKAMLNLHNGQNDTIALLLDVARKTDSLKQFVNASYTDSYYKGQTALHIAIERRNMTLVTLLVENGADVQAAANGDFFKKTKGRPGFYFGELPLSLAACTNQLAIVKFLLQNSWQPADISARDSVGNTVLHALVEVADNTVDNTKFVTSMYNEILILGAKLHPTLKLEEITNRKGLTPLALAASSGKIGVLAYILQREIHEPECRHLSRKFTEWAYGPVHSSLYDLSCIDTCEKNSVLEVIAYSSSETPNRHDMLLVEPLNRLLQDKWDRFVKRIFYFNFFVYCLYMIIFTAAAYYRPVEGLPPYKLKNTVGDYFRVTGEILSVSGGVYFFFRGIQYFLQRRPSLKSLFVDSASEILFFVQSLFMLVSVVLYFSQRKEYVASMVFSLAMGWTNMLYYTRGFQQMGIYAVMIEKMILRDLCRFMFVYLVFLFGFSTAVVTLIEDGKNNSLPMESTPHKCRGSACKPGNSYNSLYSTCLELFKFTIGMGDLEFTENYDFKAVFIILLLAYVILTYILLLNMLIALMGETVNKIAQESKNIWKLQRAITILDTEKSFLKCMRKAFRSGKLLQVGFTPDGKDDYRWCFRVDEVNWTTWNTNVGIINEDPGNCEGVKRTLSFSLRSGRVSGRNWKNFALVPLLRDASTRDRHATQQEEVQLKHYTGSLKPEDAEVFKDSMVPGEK
T5 sequence (O35433 whole entry partner): as the sequence (O35433 whole entry Y511A) above, with A511Y counted along it
T3 sequence (Q704Y3 whole entry Y512A): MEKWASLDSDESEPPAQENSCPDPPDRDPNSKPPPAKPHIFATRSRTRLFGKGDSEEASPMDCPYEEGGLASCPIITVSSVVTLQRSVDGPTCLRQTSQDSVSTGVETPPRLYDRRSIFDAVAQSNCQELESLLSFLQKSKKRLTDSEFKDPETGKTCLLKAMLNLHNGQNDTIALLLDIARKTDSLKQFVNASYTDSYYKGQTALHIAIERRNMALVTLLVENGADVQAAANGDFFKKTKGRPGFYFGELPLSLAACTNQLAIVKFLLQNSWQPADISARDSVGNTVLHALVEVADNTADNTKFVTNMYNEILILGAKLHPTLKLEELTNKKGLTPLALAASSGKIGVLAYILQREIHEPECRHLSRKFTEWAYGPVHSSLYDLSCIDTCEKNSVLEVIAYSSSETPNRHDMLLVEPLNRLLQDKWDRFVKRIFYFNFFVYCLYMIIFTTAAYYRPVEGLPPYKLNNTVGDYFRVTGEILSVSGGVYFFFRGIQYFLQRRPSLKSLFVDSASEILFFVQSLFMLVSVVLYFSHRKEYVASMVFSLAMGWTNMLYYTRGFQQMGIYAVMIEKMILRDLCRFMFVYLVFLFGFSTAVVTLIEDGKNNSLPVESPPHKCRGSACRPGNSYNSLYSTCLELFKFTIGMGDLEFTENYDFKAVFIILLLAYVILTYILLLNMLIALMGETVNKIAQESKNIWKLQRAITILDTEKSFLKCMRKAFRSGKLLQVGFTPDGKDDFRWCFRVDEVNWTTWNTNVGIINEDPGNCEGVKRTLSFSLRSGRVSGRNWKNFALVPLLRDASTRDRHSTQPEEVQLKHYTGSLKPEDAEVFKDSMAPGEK
T2 sequence (Q704Y3 whole entry): as the sequence (Q704Y3 whole entry Y512A) above, with A512Y counted along it
T4 sequence (O35433 whole entry, stated change not applied): as the sequence (O35433 whole entry Y511A) above, with A511Y counted along it
T4 sequence (O35433 whole entry, stated change not applied): as the sequence (O35433 whole entry Y511A) above, with A511Y counted along it
T4 sequence (O35433 whole entry, stated change not applied): as the sequence (O35433 whole entry Y511A) above, with A511Y counted along it
T4 sequence (O35433 whole entry Y511A): as the sequence (O35433 whole entry Y511A) above
T1 sequence (O35433 whole entry, stated change not applied): as the sequence (O35433 whole entry Y511A) above, with A511Y counted along it
T1 sequence (O35433 whole entry, stated change not applied): as the sequence (O35433 whole entry Y511A) above, with A511Y counted along it
T1 sequence (O35433 whole entry Y511A): as the sequence (O35433 whole entry Y511A) above
T1 sequence (O35433 whole entry Y511A): as above
Chain of TRPV1 (Rattus norvegicus, UniProt O35433, Y511A) (O35433 whole entry Y511A): as above
T7 sequence (O35433 whole entry Y511A): as above
T6 sequence (O35433 whole entry): as the sequence (O35433 whole entry Y511A) above, with A511Y counted along it
Chain of TRPV1 (Rattus norvegicus, UniProt O35433) (O35433 whole entry): as the sequence (O35433 whole entry Y511A) above, with A511Y counted along it

Regarding 6′-iodo-RTX [6′-iRTX], the agonist type entry with TRPV1 [1] is “weak partial agonist”. Also, in assay [2], the “L2, equilibrium constant before capsaicin” value was determined as 0.01 and the “L2, equilibrium constant before capsaicin application” value was 0.008. Further, on wildtype mouse TRPV1, the binding reversibility result is listed as “binds irreversibly” and the “channel activity produced on perfusion” value is “weak channel activities”. Moreover, on Y512A mutant mouse TRPV1 [3], the binding reversibility result was “could be washed off”. The agonist type result in the assay on TRPV1 [4] is on record as “weak agonist”. For the same molecule, in [5], the “channel activation with three molecules bound” value is “barely activated”. Further, in [6], the L was 0.01, the “L with three prebound 6′-iRTX” value is on record as 0.02 and the “L with two prebound 6′-iRTX” value is 0.02.
On to `NCCOB(c1ccccc1)c1ccccc1` [2-APB, 2-aminoethoxydiphenyl borate], for which, on wildtype mouse TRPV1, the “activation after perfusing 6′-iRTX” value is recorded as “could still activate these channels”.
Turning to `C=C(C)[C@]12C[C@@H](C)[C@@]34O[C@](Cc5ccccc5)(O[C@@H]1[C@@H]3C=C(COC(=O)Cc1ccc(O)c(OC)c1)C[C@]1(O)C(=O)C(C)=C[C@@H]41)O2` [RTX, resiniferatoxin], at TRPV1 [7], the binding reversibility result is recorded as “binds irreversibly”. In addition, at TRPV1 [8], the binding reversibility result is listed as “can be washed off”. Moreover, in assay [2], the “L2, equilibrium constant before capsaicin” value is recorded as 0.97; the “L2, equilibrium constant before capsaicin application” value is 0.96; the “initial Po level with wildtype binding sites preloaded” value is on record as “approximately 50%”. The “Po with three RTX molecules bound” value in [9] is “approximately 99%”. The agonist type entry in the assay on TRPV1 [4] is listed as “full agonist”. Also, in [6], the L amounted to 0.96 and the “L with two prebound RTX” value is 0.94.
`COc1cc(CNC(=O)CCCC/C=C/C(C)C)ccc1O` [capsaicin]: in assay [2], the Hill slope was found to be 0.88; the “Po reached on application of capsaicin” value was about 100%; the “a factor (cooperativity between the two capsaicin binding steps; 0.25 = independent)” value is listed as 0.27; the cooperative factor f was 8.9 and 11.8. Besides, on wildtype mouse TRPV1, the pEC50 was 6.96, the pKd is 6.61, the “activation after perfusing 6′-iRTX” value is recorded as “lost its activation effect” and the “slope factor (Hill function)” value is given as 1.3. For the same molecule, the negative logarithm of the EC50 (pEC50) at Y512A mutant mouse TRPV1 [10] was 4.89. For the same molecule, at Y512A mutant mouse TRPV1 [3], the pEC50 is 4.66, the pKd was 4.28 and the “slope factor (Hill function)” value is recorded as 2.3. The molecule also gave a KY in assay [11] of 2.4e+06 M⁻¹. Besides, the Hill slope in assay [5] was 0.96. In assay [12], this molecule gave a fA of 12.9. The cooperative factor f in assay [6] is 12.1 and 8.9. In addition, in assay [13], the “capsaicin association constant K” value is 49000 M⁻¹ and the cooperative factor f was 8.0.

The values are drawn from article PMC10616419 (The Journal of Biological Chemistry, 2023).
